Biological target: T1, AR (Homo sapiens, UniProt P10275)
T1 construct: endogenous in cells; host or cells: VCaP cells
T1 sequence (P10275 1-920): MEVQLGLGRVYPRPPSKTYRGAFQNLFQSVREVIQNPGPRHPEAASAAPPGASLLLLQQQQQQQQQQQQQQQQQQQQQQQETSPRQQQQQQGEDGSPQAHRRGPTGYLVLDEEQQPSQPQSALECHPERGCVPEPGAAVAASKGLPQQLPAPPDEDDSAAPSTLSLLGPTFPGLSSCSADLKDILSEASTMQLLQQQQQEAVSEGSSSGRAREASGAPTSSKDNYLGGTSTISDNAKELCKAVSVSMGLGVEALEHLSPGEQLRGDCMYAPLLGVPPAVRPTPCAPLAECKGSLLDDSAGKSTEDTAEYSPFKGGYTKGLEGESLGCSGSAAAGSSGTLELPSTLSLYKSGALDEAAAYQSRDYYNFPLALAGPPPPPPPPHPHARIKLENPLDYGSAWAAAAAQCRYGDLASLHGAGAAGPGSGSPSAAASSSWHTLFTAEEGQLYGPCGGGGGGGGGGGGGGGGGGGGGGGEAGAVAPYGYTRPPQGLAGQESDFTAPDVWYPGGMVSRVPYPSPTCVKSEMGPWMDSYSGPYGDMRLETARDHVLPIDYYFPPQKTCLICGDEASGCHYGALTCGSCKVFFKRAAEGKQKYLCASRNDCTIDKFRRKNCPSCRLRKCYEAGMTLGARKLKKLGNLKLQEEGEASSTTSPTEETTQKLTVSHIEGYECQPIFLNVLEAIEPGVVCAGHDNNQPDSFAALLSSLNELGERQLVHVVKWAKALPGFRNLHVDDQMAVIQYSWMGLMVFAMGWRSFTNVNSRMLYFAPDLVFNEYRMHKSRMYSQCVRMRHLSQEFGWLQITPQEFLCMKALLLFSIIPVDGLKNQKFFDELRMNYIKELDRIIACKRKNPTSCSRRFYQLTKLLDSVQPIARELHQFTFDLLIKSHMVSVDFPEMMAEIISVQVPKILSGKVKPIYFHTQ
Experiment: VCAP AR Degradation Assay
Format: cell-based
Conditions: VCaP cells, 24 h, AR ELISA; for DC50: concentration of compound when AR level = 50% of DMSO control (50% AR degradation); for Y: lowest measured AR level normalized to DMSO control (AR degradation efficiency)
Method in brief: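 VCaP cells (DMEM, 8% FBS) were treated 24 h at 37 °C with a 10-point 1:3 series from 5 µM final, with 0.1% DMSO control. Total AR in lysates was measured by sandwich ELISA as percent of DMSO. A 4-parameter fit gave DC50 (50% of control) and EC50; fitted Ymin marks degradation efficiency.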

Row | SMILES | DC50 | Y
1 | Cn1nc(N2CCC(=O)NC2=O)c2cccc(NC(=O)CN3CCC(CCO[C@H]4CC[C@H](N5C(=S)N(c6ccc(C#N)c(C(F)(F)F)c6)C(=O)C5(C)C)CC4)C(F)(F)C3)c21 (stereo partly drawn) [Cmpd 35, 2-(4-(2-(((trans)-4-(3-(4-Cyano-3-(trifluoromethyl)phenyl)-5,5-dimethyl-4-oxo-2-thioxoimidazolidin-1-yl)cyclohexyl)oxy)ethyl)-3,3-difluoropiperidin-1-yl)-N-(3-(2,4-dioxotetrahydropyrimidin-1(2H)-yl)-1-methyl-1H-indazol-7-yl)acetamide] | ≤ 2 nM | * (0<Y≤20%)
2 | Cn1nc(N2CCC(=O)NC2=O)c2cccc(NC(=O)CN3CCC(CCO[C@H]4CC[C@H](N5C(=S)N(c6cnc(C#N)c(C(F)(F)F)c6)C(=O)C5(C)C)CC4)C(F)(F)C3)c21 (stereo partly drawn) [Cmpd 36, 2-(4-(2-(((trans)-4-(3-(6-Cyano-5-(trifluoromethyl)pyridin-3-yl)-5,5-dimethyl-4-oxo-2-thioxoimidazolidin-1-yl)cyclohexyl)oxy)ethyl)-3,3-difluoropiperidin-1-yl)-N-(3-(2,4-dioxotetrahydropyrimidin-1(2H)-yl)-1-methyl-1H-indazol-7-yl)acetamide] | ≤ 2 nM | * (0<Y≤20%)
